Experiments:
[1] = biological target: T1, Housefly GABA receptors (Musca domestica, UniProt Q75NA5); assay: In vitro assay of binding to housefly GABA receptors (3H-EBOB displacement, housefly neuronal membranes); conditions: for Compounds with the most activity (housefly 3H-EBOB binding): housefly neuronal membranes
T1 sequence (Q75NA5 30-576): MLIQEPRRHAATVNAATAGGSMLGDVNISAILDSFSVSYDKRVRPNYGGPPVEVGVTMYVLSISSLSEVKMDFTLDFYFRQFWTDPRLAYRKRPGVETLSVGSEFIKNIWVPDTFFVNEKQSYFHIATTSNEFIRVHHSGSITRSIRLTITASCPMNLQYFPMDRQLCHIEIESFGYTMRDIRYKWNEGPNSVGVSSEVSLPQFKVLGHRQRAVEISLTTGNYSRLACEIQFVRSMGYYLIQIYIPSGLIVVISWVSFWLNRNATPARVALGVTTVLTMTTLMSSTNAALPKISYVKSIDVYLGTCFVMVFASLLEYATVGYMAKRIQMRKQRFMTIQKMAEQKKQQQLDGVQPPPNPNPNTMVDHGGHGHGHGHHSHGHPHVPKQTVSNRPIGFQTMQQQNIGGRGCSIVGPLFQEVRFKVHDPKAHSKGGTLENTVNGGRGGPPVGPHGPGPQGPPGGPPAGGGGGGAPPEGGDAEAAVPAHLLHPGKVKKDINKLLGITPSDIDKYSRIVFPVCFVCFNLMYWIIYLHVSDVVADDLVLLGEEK
Description: Newly emerged houseflies (Musca domestica, available from Rincon-Vitova Insectaries, Inc., Ventura, Calif.) were sedated with carbon dioxide gas, collected in 50 mL polypropylene conical tubes, and immediately frozen by submersion in liquid nitrogen. Unless specified, all of the following work was performed at 0-4° C. After removal from liquid nitrogen, the tubes of frozen houseflies were shaken vigorously by hand to decapitate the houseflies. […] Contaminating wings were removed by holding a vacuum nozzle approximately 4 cm above the heads, and contaminating legs were separated from the heads by passage through a #15 mesh screen. All remaining debris were removed from the pool of heads using forceps. The purified heads were collected in 50 mL polypropylene conical tubes and stored in liquid nitrogen until processed further.
About 13 g of purified housefly heads were suspended in about 65 mL of 10% sucrose buffer (10% sucrose (w/w) in 10 mM Tris, pH 7.5). The heads were homogenized for about 1 minute, using a Tissumizer™ homogenizer equipped with a SDT-100EN probe (available from Tekmar-Dohrmann, Cincinnati, Ohio) running at 70% of its maximum speed. The extract was further homogenized by about 5 passes through a 40 mL Dounce tissue grinder. The extract was then centrifuged at about 500×g for about 5 minutes to pellet large debris. The supernatant was collected; the pellet was washed with an additional 65 mL of 10% sucrose buffer and centrifuged at 500×g for about 5 minutes. The second supernatant was collected and combined with the first supernatant, and the pool was filtered through a 100μ CellMicroSieve™ mesh to remove residual debris (available from BioDesign of New York, Carmel, N.Y.).
Neuronal membranes containing active GABA receptors were collected via sucrose density centrifugation by the following method. About 8 mL of 35% sucrose buffer (35% sucrose (w/w) in 10 mM Tris, pH 7.5), were dispensed into each of six 38 mL ultracentrifuge tubes. These layers were overlaid with about 8 mL of 20% sucrose buffer (20% sucrose (w/w) in 10 mM Tris, pH 7.5), and finally overlaid with about 20 mL of filtered extract supernatant. The tubes were centrifuged at about 120,000×g for about 100 min at 4° C. After centrifugation, the 10% sucrose layer and most of the 20% sucrose layer were removed by aspiration. The membranes at the interface of the 20% sucrose and 35% sucrose layers were collected, pooled, diluted with 10% sucrose buffer, and centrifuged at about 120,000×g for about 40 min at 4° C. After centrifugation, the supernatant was discarded, and the pellets resuspended in about 6.5 mL of assay buffer (10 mM phosphate, 300 mM NaCl, pH 7.5) using a 10 mL Potter-Elvehjem tissue grinder with a Teflon® pestle. Protein concentration was determined by the Bio-Rad Protein Assay (available from Bio-Rad Laboratories, Hercules, Calif.) using bovine serum albumin as a standard. The membranes were aliquoted and stored in liquid nitrogen for up to 2 months before use.
Housefly neuronal membranes were prepared as described above from housefly heads. Test compounds were dissolved in dimethylsulfoxide (DMSO) at concentrations ranging from about 2 nM to about 100 mM. About 1 μL of a dissolved test compound was dispensed into a well of a 96-well polystyrene plate. About 100 μL of ice cold assay buffer (10 mM phosphate, 300 mM NaCl, pH 7.5) containing 5.2 nM 4′-Ethynyl-4-n-[2,3-^3H2]propylbicycloorthobenzoate (^3H-EBOB, 38 Ci/mmol, available from NEN Life Science Products, Boston, Mass.) was added to the well, followed by about 100 μL of ice cold assay buffer containing about 0.5-1.0 mg/mL housefly neuronal membranes. Control wells were prepared the same way except that the housefly neuronal membranes were omitted from the “negative” wells, and the test compounds were omitted from the “positive” wells. […]

[2] = tested on: cat fleas (Ctenocephalides felis), CO Fleas; assay: In vivo cat flea contact assay, CO fleas; conditions: Ctenocephalides felis, topical; contact with treated filter disk in vial, about 24-30 hours; mM = concentration of the DMSO solution, about 1 μL applied; read-out: LD50 (mM), CO Fleas
Description: This example describes an in vivo assay to screen compounds for their ability to kill cat fleas via contact.
Test compounds were dissolved in dimethylsulfoxide (DMSO) at concentrations ranging from about 0.05 mM to about 100 mM. About 1 μL of dissolved test compound was dispensed onto a 6 mm (diameter) GF/C filter disk (filter material available from Whatman Inc., Clifton, N.J.) in the bottom of a 4 mL screw-top glass vial and allowed to air dry 24-48 hours. Positive control vials were prepared in the same manner except that no test compounds were dissolved in the DMSO. About 20 newly emerged cat fleas (Ctenocephalides felis) were sedated by refrigeration at 0-4° C. and transferred to each vial. Each vial was sealed with a thin, perforated Teflon™ septum secured by an open top screw cap and held vertically in the dark. After about 24-30 hours, the healthy, moribund, and dead cat fleas in each vial were counted. The percentage of dead cat fleas in each vial was then calculated using the formula M=100(D−(FC/100))/(F−(FC/100)), in which M is the percentage of dead cat fleas due to the addition of the test compound, D is the number of dead cat fleas in the test vial, F is the total number of cat fleas in the test vial, and C is the percentage of dead cat fleas in the control vials.

[3] = biological target: Mouse Brain GABA Receptors; assay: In vitro assay of binding to mouse brain GABA receptors (3H-EBOB displacement, mouse brain membranes); conditions: displacement of 5.2 nM 3H-EBOB, about 45 min at about 24° C.
Description: Mouse brains were obtained from carbon dioxide-asphyxiated Swiss-Webster mice, washed with phosphate-buffered saline, and used either fresh or after storage at −80° C. for up to 10 months. Unless specified, all preparation steps were performed at 0-4° C. For each preparation, 20 brains were suspended in about 40 mL of 0.32 M sucrose and homogenized for about 2 minutes, using a Tissumizer™ homogenizer equipped with a SDT-100EN probe (available from Tekmar-Dohrmann, Cincinnati, Ohio) running at 50% of its maximum speed. The extract was centrifuged for about 5 min at about 1000×g to pellet intact brain tissue. The supernatant was retained and the pellet washed with an additional 40 mL of 0.32 M sucrose and centrifuged at 1000×g for about 5 minutes. The 1000×g supernatants were combined and centrifuged at about 10,000×g for about 20 min to pellet membranes. The 10,000×g supernatant was discarded and the pellet was resuspended in about 20 mL of water containing 1 mM EDTA. The sample was dialyzed two times for about 3 hours each against about 3 L of water. The sample was then centrifuged at about 25,000×g for about 30 min to pellet the membranes. After centrifugation, the supernatant was discarded and the wet pellet recovered. The protein concentration of the pellet was determined by the Bio-Rad Protein Assay (available from Bio-Rad Laboratories, Hercules, Calif.) using bovine serum albumin as a standard. The membranes were aliquoted and stored at −80° C. for up to 6 months before use.
Mouse brain membranes were prepared as described above from dissected mouse brains. Test compounds were dissolved in dimethylsulfoxide (DMSO) at concentrations ranging from about 2 nM to about 100 mM. About 1 μL of a dissolved test compound was dispensed into a well of a 96-well polystyrene plate. About 100 μL of ice cold assay buffer (10 mM phosphate, 300 mM NaCl, pH 7.5) containing 5.2 nM 4′-Ethynyl-4-n-[2,3-^3H2]propylbicycloorthobenzoate (^3H-EBOB, 38 Ci/mmol, available from NEN Life Science Products, Boston, Mass.) was added to the well, followed by about 100 μL of ice cold assay buffer containing about 0.25-0.5 mg/mL mouse brain membranes. Control wells were prepared the same way except that the mouse brain membranes were omitted from the “negative” wells, and the test compounds were omitted from the “positive” wells. The samples were incubated for about 45 min at about 24° C. and then filtered on a 0.1% (w/v) polyethylenimine-soaked glass fiber Filtermat A (available from EG&G Wallac Inc., Gaithersburg, Md.) followed by four 100 mL rinses of cold assay buffer using a Harvester 96® cell harvester (available from Tomtec, Orange, Conn.). The filtermat was air dried and radioactivity bound to the filtermat was detected with either a 1450 MicroBeta® Trilux scintillation counter (available from EG&G Wallac Inc.) or a Topcount NXT™ scintillation counter (available from Packard Instrument Co., Meriden, Conn.) using standard methods.
Specific binding was considered to be the difference between total ^3H bound to the mouse brain membranes in the absence of any inhibitors and nonspecific ^3H bound to the mouse brain membranes upon the addition of 5 μM unlabeled EBOB. The average radioactivity contained in the “negative” wells was subtracted from each of the assay wells. […] Compounds that displaced ^3H-EBOB specifically bound to the mouse brain membranes were tested at 24-48 different final concentrations, varying from about 1 nM to about 125 μM, in order to determine the concentration at which 50% of the maximum inhibition due to the addition of that compound was observed (IC50). […]

CC1CCc2nn(-c3c(Cl)cc(C(F)(F)F)cc3Cl)cc21 (racemic) [Compound 42, 2-[2,6-Dichloro-4-(trifluoromethyl)phenyl]-4-methyl-2,4,5,6-tetrahydrocyclopenta[c]pyrazole]
Compounds with the most activity (housefly 3H-EBOB binding) [1]: most activity

F[C@@H]1Cc2cn(-c3c(Cl)cc(C(F)(F)F)cc3Cl)nc2[C@@H]1F (relative stereo) [Compound 81, cis-2-[2,6-Dichloro-4-(trifluoromethyl)phenyl]-5,6-difluoro-2,4,5,6-tetrahydrocyclopenta[c]pyrazole]
LC50 [2]: 1.5 mM | IC50 [3]: 1000 nM

Nc1c2c(nn1-c1c(Cl)cc(C(F)(F)F)cc1Cl)CSC2 [Compound 1, 2-[2,6-Dichloro-4-(trifluoromethyl)phenyl]-4,6-dihydrothieno-[3,4-c]pyrazole-3-ylamine]
Compounds with the most activity (housefly 3H-EBOB binding) [1]: most activity

O=S(=O)(Oc1c2c(nn1-c1c(Cl)cc(C(F)(F)F)cc1Cl)CSC2)c1ccccc1 [Compound 6, 2-[2,6-Dichloro-4-(trifluoromethyl)phenyl]-4,6-dihydrothieno-[3,4-c]pyrazole-3-yl benzenesulfonate]
IC50 [3]: 730 nM

FC(F)(F)c1cc(Cl)c(-n2cc3c(n2)CCSC3)c(Cl)c1 [Compound 10, 2-[2,6-Dichloro-4-(trifluoromethyl)phenyl]-2H,4H,6H,7H-thiano[4,3-c]pyrazole]
IC50 [3]: 3800 nM | Compounds with the most activity (housefly 3H-EBOB binding) [1]: most activity

CC1(C)CCc2cn(-c3c(Cl)cc(C(F)(F)F)cc3Cl)nc21 [Compound 12, 2-[2,6-Dichloro-4-(trifluoromethyl)phenyl]-6,6-dimethyl-2,4,5,6-tetrahydrocyclopenta[c]pyrazole]
IC50 [3]: 30000 nM | Compounds with the most activity (housefly 3H-EBOB binding) [1]: most activity

FC(F)(F)c1cc(Cl)c(-n2cc3sccc3n2)c(Cl)c1 [Compound 22, 2-[2,6-Dichloro-4-(trifluoromethyl)phenyl]-2H-thieno[3,2-c]pyrazole]
Compounds with the most activity (housefly 3H-EBOB binding) [1]: most activity

FC1Cc2nn(-c3c(Cl)cc(C(F)(F)F)cc3Cl)cc2C1(F)F (stereo not shown) [Compound 56, 2-[2,6-Dichloro-4-(trifluoromethyl)phenyl]-4,4,5-trifluoro-2,4,5,6-tetrahydrocyclopenta[c]pyrazole]
LC50 [2]: 1 mM | IC50 [3]: 1000 nM

CC1(O)c2cn(-c3c(Cl)cc(C(F)(F)F)cc3Cl)nc2CC1F (stereo not shown) [Compound 57, 2-[2,6-Dichloro-4-(trifluoromethyl)phenyl]-5-fluoro-4-methyl-2,4,5,6-tetrahydrocyclopenta[c]pyrazol-4-ol]
LC50 [2]: 3.8 mM | IC50 [3]: 25000 nM

FC(F)(F)c1cc(Cl)c(-n2cc3c(n2)CC=C3)c(Cl)c1 [Compound 63, 2-[2,6-Dichloro-4-(trifluoromethyl)phenyl]-6-hydrocyclopenta[1,2-c]pyrazole]
IC50 [3]: 1000 nM

O=S(=O)(C1CCc2nn(-c3c(Cl)cc(C(F)(F)F)cc3Cl)cc21)C(F)(F)F (stereo not shown) [Compound 67]
IC50 [3]: 25000 nM

CSC1CCc2nn(-c3c(Cl)cc(C(F)(F)F)cc3Cl)cc21 (stereo not shown) [Compound 68, 2-[2,6-Dichloro-4-(trifluoromethyl)phenyl]-4-methylthio-2,4,5,6-tetrahydrocyclopenta[c]pyrazole]
IC50 [3]: 1000 nM

CC1(O)c2cn(-c3c(Cl)cc(C(F)(F)F)cc3Cl)nc2CC1(F)F (stereo not shown) [Compound 93, 2-[2,6-Dichloro-4-(trifluoromethyl)phenyl]-5,5-difluoro-4-methyl-2,4,5,6-tetrahydrocyclopenta[c]pyrazol-4-ol]
IC50 [3]: 2300 nM | IC50 ([1]; displacement of 5.2 nM 3H-EBOB, housefly head neuronal membranes, about 45 min at about 24° C., read-out: IC50 (nM), Fly Head): 100 nM

From patent publication US6545033B1, “Fused 1-(2,6-dichloro-4-trifluoromethylphenyl)-pyrazoles, the synthesis thereof and the use thereof as pesticides” (3-Dimensional Pharmaceuticals, Inc., priority 1999, dated 2003)
